From DBAASP
Values after ≈ are worked out from the molar mass of the structure shown.

Experiments:
Assay in all cases: ≥ marks a high value that may be exact or a test limit, other limits are often not marked, values filed in µg/mL are converted to µM
[1] = test system: Pseudomonas aeruginosa Ps4
[2] = test system: Staphylococcus aureus ATCC 43300
[3] = test system: Candida albicans ATCC 90028
[4] = test system: Escherichia coli ATCC 8739
[5] = test system: Staphylococcus aureus ATCC 6538
[6] = test system: Staphylococcus aureus ATCC 25923
Streptococcus mutans = test system: Streptococcus mutans

| Structure (SMILES) | MIC [1] | MIC [4] | other results |
| --- | --- | --- | --- |
| CC[C@H](C)[C@H](NC(=O)[C@H](CCCCN)NC(=O)[C@@H](NC(=O)[C@H](CO)NC(=O)[C@H](CC(=O)O)NC(=O)[C@H](Cc1c[nH]c2ccccc12)NC(=O)[C@H](CC(C)C)NC(=O)CN)[C@@H](C)CC)C(=O)N[C@@H](C)C(=O)NCC(=O)N[C@@H](CCCCN)C(=O)N[C@@H](CCCCN)C(=O)N[C@@H](CC(C)C)C(=O)N[C@@H](Cc1ccccc1)C(=O)N[C@H](C(=O)N[C@@H](CC(N)=O)C(=O)N[C@H](C(=O)N[C@@H](CC(C)C)C(=O)N[C@@H](CC(=O)O)C(=O)N[C@@H](CCCCN)C(=O)N[C@H](C(=O)N[C@@H](CCCN=C(N)N)C(=O)N[C@H]1CSSC[C@@H](C(=O)O)NC(=O)CNC(=O)CNC(=O)[C@H](C)NC(=O)[C@H](C(C)C)NC(=O)[C@H](CCCCN)NC1=O)[C@@H](C)CC)C(C)C)C(C)C [GLWDSIKIAGKKLFVNVLDKIRCKVAGGC] | – | 12.5 µM (≈ 39.1 µg/mL) | MIC [2]: 12.5 µM (≈ 39.1 µg/mL); MIC [3]: ≥ 100 µM; MIC [5]: 3.1 µM (≈ 9.71 µg/mL) |
| CSCC[C@H](N)C(=O)N[C@@H](C)C(=O)N[C@@H](CCCN=C(N)N)C(=O)N[C@@H](CC(N)=O)C(=O)N[C@@H](CCCCN)C(=O)N1CCC[C@H]1C(=O)N[C@@H](CC(C)C)C(=O)NCC(=O)N[C@@H](CCCCN)C(=O)N[C@@H](CCCCN)C(=O)N[C@@H](CC(C)C)C(=O)N[C@@H](CCCN=C(N)N)C(=O)N[C@@H](CC(C)C)C(=O)N[C@@H](C)C(=O)N[C@@H](C)C(=O)N[C@@H](C)C(=O)N[C@@H](Cc1ccccc1)C(=O)N[C@@H](CCCCN)C(=O)O [MARNKPLGKKLRLAAAFK] | – | ≥ 127 µM | MIC [6]: > 127 µM |
| CSCC[C@H](N)C(=O)N[C@@H](CCCCN)C(=O)N[C@@H](CCCCN)C(=O)N[C@@H](CC(C)C)C(=O)N[C@@H](Cc1ccccc1)C(=O)N[C@@H](C)C(=O)N[C@@H](C)C(=O)N[C@@H](CC(C)C)C(=O)N[C@@H](C)C(=O)N[C@@H](CC(C)C)C(=O)N[C@@H](C)C(=O)N[C@@H](C)C(=O)N[C@H](C(=O)N[C@H](C(=O)N[C@@H](C)C(=O)N1CCC[C@H]1C(=O)N[C@H](C(=O)N[C@@H](Cc1c[nH]c2ccccc12)C(=O)O)C(C)C)C(C)C)C(C)C [MKKLFAALALAAVVAPVW] | – | ≥ 135 µM | MIC [6]: > 135 µM |
| CC(C)C[C@H](NC(=O)[C@H](CCCCN)NC(=O)[C@H](CCCCN)NC(=O)[C@H](CCCN=C(N)N)NC(=O)[C@H](CCCN=C(N)N)NC(=O)[C@H](CO)NC(=O)[C@H](CCC(N)=O)NC(=O)[C@H](Cc1ccc(O)cc1)NC(=O)[C@H](Cc1ccccc1)NC(=O)[C@H](CCC(N)=O)NC(=O)[C@H](CO)NC(=O)[C@H](CCC(=O)O)NC(=O)[C@H](CCCN=C(N)N)NC(=O)[C@@H](N)CC(N)=O)C(=O)N[C@@H](CO)C(=O)N[C@@H](CO)C(=O)N[C@@H](CCC(N)=O)C(=O)N[C@H](C(=O)O)C(C)C [NRESQFYQSRRKKLSSQV] | – | ≥ 114 µM | MIC [6]: > 114 µM |
| NC(N)=NCCC[C@H](NC(=O)[C@H](Cc1c[nH]c2ccccc12)NC(=O)[C@H](Cc1c[nH]c2ccccc12)NC(=O)[C@H](Cc1ccccc1)NC(=O)[C@H](CCCN=C(N)N)NC(=O)[C@H](CCCN=C(N)N)NC(=O)[C@@H](N)CCCN=C(N)N)C(=O)O [RRRFWWR] | – | – | MIC (Streptococcus mutans): ≥ 53.8 µM |
| NC(N)=NCCC[C@H](NC(=O)[C@H](CCCN=C(N)N)NC(=O)[C@H](Cc1c[nH]c2ccccc12)NC(=O)[C@H](Cc1c[nH]c2ccccc12)NC(=O)[C@H](CCCN=C(N)N)NC(=O)[C@@H](N)CCCN=C(N)N)C(=O)N[C@@H](Cc1c[nH]c2ccccc12)C(=O)O [RRWWRRW] | – | – | MIC (Streptococcus mutans): 13.3 µM (≈ 16 µg/mL) |
| CC(C)C[C@H](NC(=O)[C@H](Cc1cnc[nH]1)NC(=O)[C@H](CCC(N)=O)NC(=O)[C@H](Cc1c[nH]c2ccccc12)NC(=O)[C@@H](NC(=O)[C@H](CCC(N)=O)NC(=O)[C@H](Cc1ccccc1)NC(=O)[C@H](CC(C)C)NC(=O)[C@@H](N)Cc1ccc(O)cc1)[C@@H](C)O)C(=O)N[C@@H](Cc1ccccc1)C(=O)N[C@@H](CCCN=C(N)N)C(=O)O [YLFQTWQHLFR] | – | – | MIC (Streptococcus mutans): ≥ 81.2 µM |

Now from value to compound, other results behind:

| MIC [1] | MIC [4] | Structure (SMILES) | other results |
| --- | --- | --- | --- |
| ≥ 159 µM | – | CC[C@H](C)[C@H](NC(=O)[C@H](CCCN=C(N)N)NC(=O)[C@@H](NC(=O)[C@H](CC(N)=O)NC(=O)[C@H](CCCN=C(N)N)NC(=O)[C@H](CCC(N)=O)NC(=O)[C@H](Cc1c[nH]c2ccccc12)NC(=O)[C@H](CCC(N)=O)NC(=O)[C@@H](N)Cc1ccccc1)[C@@H](C)CC)C(=O)N[C@@H](CCCN=C(N)N)C(=O)N[C@@H](CCCN=C(N)N)C(N)=O [FQWQRNIRIRR] | – |
| ≥ 146 µM | – | CC[C@H](C)[C@H](NC(=O)[C@H](CC(N)=O)NC(=O)[C@H](CCCN=C(N)N)NC(=O)[C@H](CCC(N)=O)NC(=O)[C@H](Cc1c[nH]c2ccccc12)NC(=O)[C@@H](N)Cc1ccccc1)C(=O)N[C@@H](CCCN=C(N)N)C(=O)N[C@@H](CCCCN)C(=O)N[C@H](C(=O)N[C@@H](CCCN=C(N)N)C(=O)N[C@@H](CCCN=C(N)N)C(=O)N[C@@H](CCCN=C(N)N)C(N)=O)C(C)C [FWQRNIRKVRRR] | – |
| ≥ 160 µM | – | CC[C@H](C)[C@H](NC(=O)[C@H](CC(N)=O)NC(=O)[C@H](CCCN=C(N)N)NC(=O)[C@H](CCC(N)=O)NC(=O)[C@H](Cc1c[nH]c2ccccc12)NC(=O)[C@@H](N)Cc1ccccc1)C(=O)N[C@@H](CCCN=C(N)N)C(=O)N[C@@H](CCCCN)C(=O)N[C@H](C(=O)N[C@@H](CCCN=C(N)N)C(=O)N[C@@H](CCCN=C(N)N)C(N)=O)C(C)C [FWQRNIRKVRR] | – |
| ≥ 177 µM | – | CC[C@H](C)[C@H](NC(=O)[C@H](CC(N)=O)NC(=O)[C@H](CCCN=C(N)N)NC(=O)[C@H](CCC(N)=O)NC(=O)[C@H](Cc1c[nH]c2ccccc12)NC(=O)[C@@H](N)Cc1ccccc1)C(=O)N[C@@H](Cc1ccc(O)cc1)C(=O)N[C@@H](CCCCN)C(=O)N[C@H](C(=O)N[C@@H](CCCN=C(N)N)C(N)=O)C(C)C [FWQRNIYKVR] | – |
| ≥ 169 µM | – | CC(C)[C@H](NC(=O)[C@H](CCCCN)NC(=O)[C@H](CCCN=C(N)N)NC(=O)[C@H](Cc1c[nH]c2ccccc12)NC(=O)[C@H](CC(N)=O)NC(=O)[C@H](CCCN=C(N)N)NC(=O)[C@H](CCC(N)=O)NC(=O)[C@H](Cc1c[nH]c2ccccc12)NC(=O)[C@@H](N)Cc1ccccc1)C(=O)N[C@@H](CCCN=C(N)N)C(N)=O [FWQRNWRKVR] | – |
